Three molecules from patent US10329231B2, “Epoxy compound, method for producing the same, epoxy resin composition, and cured product thereof” (DIC Corporation, priority 2012, dated 2019) can be followed below.

Common to all, as to format: physicochemical
Data set [1] is described as follows: Solubility in hexane during purification. The settings on record: reflux then room temperature. As for the experimental part:
Oxidative coupling reaction and solvent extraction were performed under the same conditions as in Example 1. Ethyl acetate was distilled off under vacuum, and then hexane was added to the resultant crude product. The mixture was transferred to a SUS container provided with a thermometer, a stirrer, and Dean-Stark trap, and hexane was further added so that the total amount was 5 L, followed by reflux. The hexane solution was cooled to room temperature, and then insoluble substances were filtered off. The solvent of the filtrate was distilled off under vacuum, and the residue was dried at 110° C. for 5 hours to produce 2 g (yield 3%) of a solid containing [1,1′-binaphthalene]-2,2′,7,7′-tetraol as a main component.

Data set [2] is described as follows: Softening point, ball & ring (B & R) method, JIS K7234. The settings on record: glycerin heating medium. The source says: 2) Method for measuring softening point: measured by a ball & ring (B & R) method using glycerin as a heating medium according to JIS K7234.
Apparatus name: ASP-M2 model manufactured by Meitec Corporation

Data set [3] in a line: Melt viscosity at 150° C., ASTM D4287 (ICI viscometer method). The settings on record: for Melt viscosity at 150° C. of epoxy resin: Table 1. Set-up: Melt viscosity at 150° C. of epoxy resin: unit not given here. How it is done:
1) Melt viscosity at 150° C.: measured with an apparatus below according to ASTM D4287.
Apparatus name: MODEL CV-1S manufactured by Codex Corporation

`Oc1ccc2ccc(O)c(-c3c(O)ccc4ccc(O)cc34)c2c1` [1,1′-Binaphthalene]-2,2′,7,7′-tetraol, [1,1′-binaphthalene]-2,2′,7,7′-tetraol]: the solubility in hexane result in data set [1] is recorded as “low solubility”.

Turning to `c1cc2ccc(OCC3CO3)c(-c3c(OCC4CO4)ccc4ccc(OCC5CO5)cc34)c2cc1OCC1CO1` (stereo not shown) [Example A-1, 2,2′,7,7′-tetraglycidyloxy-[1,1′-binaphthalene]], the “Softening point of epoxy resin” value in data set [2] worked out at 61 °C. In addition, the “Melt viscosity at 150° C. of epoxy resin” value in data set [3] (150° C.) was 1.1. The molecule also returned a melt viscosity in data set [3] (ICI viscometer method, measurement temperature 150° C.) of 1.1 dPa·s.

Turning to `c1cc2ccc(OCC3CO3)c(Cc3c(OCC4CO4)ccc4ccc(OCC5CO5)cc34)c2cc1OCC1CO1` (stereo not shown) [Example A-2, reference compound], in data set [2], the “Softening point of epoxy resin” value came out at 91 °C. For the same molecule, the “Melt viscosity at 150° C. of epoxy resin” value in data set [3] (150° C.) was found to be 4.5. Further, the “150° C. melt viscosity” value in data set [3] (150° C., data given with the product description) came to 4.5 ps.
